Test results published in patent US20240317758A1 (Halia Therapeutics, Inc., priority 2021, published 2024).

Legend:
[1] = biological target: T1, full-length recombinant human NEK7 (Homo sapiens, UniProt Q8TDX7); assay: NEK7 enzymatic assay; format: biochemical; details: recombinant human NEK7, casein substrate, radiolabelled ATP
T1 construct: full-length recombinant human NEK7; GST (N); purchased SignalChem NO9-10G; host or cells: Sf9 insect cells (baculovirus)
Procedure, shortened: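 Full-length GST-tagged human NEK7 from Sf9 cells (assay concentration 70 nM) was used with casein (assay concentration 20 μM) in Hepes pH 7.5 buffer, 1% DMSO, and compound (3-fold dilutions, 10 μM to 0.5 nM) was preincubated 20 min at room temperature. Radiolabelled ATP was added for 2 h, phosphorylation was read on P81 paper, and IC50 was fitted from % activity remaining versus vehicle.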

IL-1β release = IL-1β release assay (THP-1 cells, PMA, LPS, nigericin); format: cell-based; details: Homo sapiens, LPS 250 ng/mL, nigericin 20 μM, cleaved IL-1β in media
Experimental: Approximately 1.5 million THP-1 cells were plated in each well of a 6-well TC plate and incubated with 40 nM PMA in RPMI (10% FBS, 1% Penstrep) for 24 hours. The media was then removed and cells were rested in RPMI (10% FBS, 1% Penstrep) for 24 hours after which time the media was removed and cells were pre-treated for 2 hours with various concentrations of compounds of interest (typically serial 3-fold dilution in RPMI+5% FBS, concentrations ranging from 1 μM to 0.5 nM) in RPMI (5% FBS). The media was again removed and cells were incubated with 250 ng/mL LPS and compounds of interest (concentrations as above) in RMPI (5% FBS) for 2 hours. The media was removed for a last time and cells were incubated with 20 μM nigericin and compounds of interest (concentrations as above) in Opti-MEM for 30 minutes. Cell media was then collected and the amount of cleaved IL-1β was determined using a JESS instrument (Protein Simple) and standard protocols. Cleaved Il-1β antibody was obtained from Cell Signaling (catalogue #83186S) and was used at 1:20 dilution in antibody diluent 2. Protein Simple 1× anti-Rabbit HRP secondary antibody was used along with Protein Simple luminol and peroxide for chemiluminescent detection. Primary antibody incubation time was increased from 30 minutes to 60 minutes.

T1 sequence (Q8TDX7 whole entry): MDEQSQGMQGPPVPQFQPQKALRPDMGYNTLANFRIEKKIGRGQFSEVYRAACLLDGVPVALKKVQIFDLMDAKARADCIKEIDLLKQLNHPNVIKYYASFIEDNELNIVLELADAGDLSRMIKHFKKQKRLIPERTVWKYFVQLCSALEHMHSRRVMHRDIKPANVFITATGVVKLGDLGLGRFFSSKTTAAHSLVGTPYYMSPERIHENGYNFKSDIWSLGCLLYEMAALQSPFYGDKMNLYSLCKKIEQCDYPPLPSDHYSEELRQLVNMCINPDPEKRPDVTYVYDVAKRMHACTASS

Row | Structure (SMILES) | IC50 [1] [nM] | IC50 (IL-1β release) [nM]
1 | Nc1ncnc2c1c(-c1ccc(NC(=O)Nc3ccc(CN4CCN(CCO)CC4)c(C(F)(F)F)c3)c(F)c1)cn2C1CC1 [Example I-42, 1-(4-(4-amino-7-cyclopropyl-7H-pyrrolo[2,3-d]pyrimidin-5-yl)-2-fluorophenyl)-3-(4-((4-(2-hydroxyethyl)piperazin-1-yl)methyl)-3-(trifluoromethyl)phenyl)urea] | < 100 | < 50
2 | COCCN1CCN(Cc2ccc(NC(=O)Nc3ccc(-c4cn(C5CC5)c5ncnc(N)c45)cc3F)cc2C(F)(F)F)CC1 [Example I-43, 1-(4-(4-amino-7-cyclopropyl-7H-pyrrolo[2,3-d]pyrimidin-5-yl)-2-fluorophenyl)-3-(4-((4-(2-methoxyethyl)piperazin-1-yl)methyl)-3-(trifluoromethyl)phenyl)urea] | < 100 | 50 to 250
3 | CN(C)C1CCN(Cc2ccc(NC(=O)Nc3ccc(-c4cn(C5CC5)c5ncnc(N)c45)cc3F)cc2C(F)(F)F)C1 (stereo not drawn) [Example I-45, 1-(4-(4-amino-7-cyclopropyl-7H-pyrrolo[2,3-d]pyrimidin-5-yl)-2-fluorophenyl)-3-(4-((3-(dimethylamino)pyrrolidin-1-yl)methyl)-3-(trifluoromethyl)phenyl)urea] | < 100 | < 50
4 | CN1CCC(Oc2ccc(NC(=O)Nc3ccc(-c4cn(C5CC5)c5ncnc(N)c45)cc3F)cc2C(F)(F)F)CC1 [Example I-47, 1-(4-(4-amino-7-cyclopropyl-7H-pyrrolo[2,3-d]pyrimidin-5-yl)-2-fluorophenyl)-3-(4-((1-methylpiperidin-4-yl)oxy)-3-(trifluoromethyl)phenyl)urea] | < 100 | < 50
5 | CN1CCN(C(=O)c2ccc(NC(=O)Nc3ccc(-c4nn(C5CC5)c5ncnc(N)c45)cc3F)cc2C(F)(F)F)CC1 [Example I-49, 1-(4-(4-amino-1-cyclopropyl-1H-pyrazolo[3,4-d]pyrimidin-3-yl)-2-fluorophenyl)-3-(4-(4-methylpiperazine-1-carbonyl)-3-(trifluoromethyl)phenyl)urea] | 100 to 500 | 50 to 250
6 | CCN1CCN(Cc2ccc(NC(=O)Nc3ccc(-c4nn(C5CC5)c5ncnc(N)c45)cc3F)cc2C(F)(F)F)CC1 [Example I-50, 1-(4-(4-amino-1-cyclopropyl-1H-pyrazolo[3,4-d]pyrimidin-3-yl)-2-fluorophenyl)-3-(4-((4-ethylpiperazin-1-yl)methyl)-3-(trifluoromethyl)phenyl)urea] | < 100 | < 50
7 | CC(C)N1CCN(Cc2ccc(NC(=O)Nc3ccc(-c4cn(C5CC5)c5ncnc(N)c45)cc3F)cc2C(F)(F)F)CC1 [Example I-63, 1-(4-(4-amino-7-cyclopropyl-7H-pyrrolo[2,3-d]pyrimidin-5-yl)-2-fluorophenyl)-3-(4-((4-isopropylpiperazin-1-yl)methyl)-3-(trifluoromethyl)phenyl)urea] | < 100 | < 50
8 | Nc1ncnc2c1c(-c1ccc(NC(=O)Nc3ccc(CN4CCNCC45CC5)c(C(F)(F)F)c3)c(F)c1)cn2C1CC1 [Example I-66, 1-(4-((4,7-diazaspiro[2.5]octan-4-yl)methyl)-3-(trifluoromethyl)phenyl)-3-(4-(4-amino-7-cyclopropyl-7H-pyrrolo[2,3-d]pyrimidin-5-yl)-2-fluorophenyl)urea] | < 100 | 250 to 1000
9 | CN1CCN(Cc2ncc(NC(=O)Nc3ccc(-c4cn(C5CC5)c5ncnc(N)c45)cc3F)cc2C(F)(F)F)CC1 [Example I-68, 1-(4-(4-amino-7-cyclopropyl-7H-pyrrolo[2,3-d]pyrimidin-5-yl)-2-fluorophenyl)-3-(6-((4-methylpiperazin-1-yl)methyl)-5-(trifluoromethyl)pyridin-3-yl)urea] | 100 to 500 | 50 to 250
10 | Nc1ncnc2c1c(-c1ccc(NC(=O)Nc3ccc(CN4CCN(CCO)CC4)c(C(F)F)c3)c(F)c1)cn2C1CC1 [Example I-72, 1-(4-(4-amino-7-cyclopropyl-7H-pyrrolo[2,3-d]pyrimidin-5-yl)-2-fluorophenyl)-3-(3-(difluoromethyl)-4-((4-(2-hydroxyethyl)piperazin-1-yl)methyl)phenyl)urea] | < 100 | 50 to 250
11 | Nc1ncnc2c1c(-c1ccc(NC(=O)Nc3ccc(CN4CCC(N)CC4)c(C(F)(F)F)c3)c(F)c1)cn2C1CC1 [Example I-75, 1-(4-(4-amino-7-cyclopropyl-7H-pyrrolo[2,3-d]pyrimidin-5-yl)-2-fluorophenyl)-3-(4-((4-aminopiperidin-1-yl)methyl)-3-(trifluoromethyl)phenyl)urea] | 100 to 500 | > 1000
12 | CN1CCN(Cc2ccc(NC(=O)Nc3ccc(-c4nn(CCO)c5ncnc(N)c45)cc3F)cc2C(F)(F)F)CC1 [Example I-76, 1-(4-(4-amino-1-(2-hydroxyethyl)-1H-pyrazolo[3,4-d]pyrimidin-3-yl)-2-fluorophenyl)-3-(4-((4-methylpiperazin-1-yl)methyl)-3-(trifluoromethyl)phenyl)urea] | < 100 | 50 to 250
13 | COCCn1nc(-c2ccc(NC(=O)Nc3ccc(CN4CCN(C)CC4)c(C(F)(F)F)c3)c(F)c2)c2c(N)ncnc21 [Example I-77, 1-(4-(4-amino-1-(2-methoxyethyl)-1H-pyrazolo[3,4-d]pyrimidin-3-yl)-2-fluorophenyl)-3-(4-((4-methylpiperazin-1-yl)methyl)-3-(trifluoromethyl)phenyl)urea] | < 100 | < 50
14 | CN1CCN(Cc2ccc(NC(=O)Nc3ccc(-c4cn(C5CC5)c5ncnc(N)c45)cc3F)cc2OC(F)(F)F)CC1 [Example I-78, 1-(4-(4-amino-7-cyclopropyl-7H-pyrrolo[2,3-d]pyrimidin-5-yl)-2-fluorophenyl)-3-(4-((4-methylpiperazin-1-yl)methyl)-3-(trifluoromethoxy)phenyl)urea] | 100 to 500 | 50 to 250
15 | Nc1ncnc2c1c(-c1ccc(NC(=O)Nc3ccc(CN4CCNCC4)c(C(F)(F)F)c3)c(F)c1)cn2C1CC1 [Example I-79, 1-(4-(4-amino-7-cyclopropyl-7H-pyrrolo[2,3-d]pyrimidin-5-yl)-2-fluorophenyl)-3-(4-(piperazin-1-ylmethyl)-3-(trifluoromethyl)phenyl)urea] | < 100 | 50 to 250
16 | CC(=O)N1CCN(Cc2ccc(NC(=O)Nc3ccc(-c4cn(C5CC5)c5ncnc(N)c45)cc3F)cc2C(F)(F)F)CC1 [Example I-80, 1-(4-((4-acetylpiperazin-1-yl)methyl)-3-(trifluoromethyl)phenyl)-3-(4-(4-amino-7-cyclopropyl-7H-pyrrolo[2,3-d]pyrimidin-5-yl)-2-fluorophenyl)urea] | 100 to 500 | > 1000
17 | COCCn1cc(-c2ccc(NC(=O)Nc3ccc(CN4CCN(C)CC4)c(C(F)(F)F)c3)c(F)c2)c2c(N)ncnc21 [Example I-81, 1-(4-(4-amino-7-(2-methoxyethyl)-7H-pyrrolo[2,3-d]pyrimidin-5-yl)-2-fluorophenyl)-3-(4-((4-methylpiperazin-1-yl)methyl)-3-(trifluoromethyl)phenyl)urea] | < 100 | < 50
18 | CC(=O)N1CCC(Oc2ccc(NC(=O)Nc3ccc(-c4cn(C5CC5)c5ncnc(N)c45)cc3F)cc2C(F)(F)F)CC1 [Example I-82, 1-(4-((1-acetylpiperidin-4-yl)oxy)-3-(trifluoromethyl)phenyl)-3-(4-(4-amino-7-cyclopropyl-7H-pyrrolo[2,3-d]pyrimidin-5-yl)-2-fluorophenyl)urea] | 100 to 500 | 250 to 1000
